Measurements taken from paper PMC11476419, “Analysis of Punicalin and Punicalagin Interaction with PDIA3 and PDIA1” (International Journal of Molecular Sciences, 2024).

Columns and labels:
PDIA1 [1] = molecular target: T1, PDIA1 (Homo sapiens, UniProt P07237); experiment: Differential scanning fluorimetry (protein thermal shift); type: binding; settings: PDIA1, compound 20 µM
T1 construct: The mature human PDIA1 with an N-terminal His6x-tag was expressed and purified; His6 (N); made in house
Experimental: (§1) The effect of punicalin and punicalagin on the stability of both proteins was evaluated by differential scanning fluorimetry (DSF). Initially, PDIA1 and PDIA3 were incubated at 25 °C for 20 min with both substances at 5 µM and 20 µM concentrations. […] The reading was optimized at intervals of 0.2 °C every 5 s. Once the fluorescence profile was obtained, the data were analyzed with the GraphPad prism program, by either fitting data with a Boltzmann equation or calculating the first derivative. In DSF analyses, a gradual increase in fluorescence is observed, due to a conformational change in the protein, which reaches a maximum value and then decreases because of protein precipitation.
(§2) To evaluate Tm, we focused the attention on the main transition, and thus we fitted, with a Boltzmann equation, the data in the range of 25–55 °C for PDIA3 and in the range of 45–70 °C for PDIA1. Again, the two substances show a destabilizing effect, which was more evident for PDIA3 than for PDIA1. In fact, punicalagin and punicalin at a 20 µM concentration cause a shift of Tm of at least 6 °C in the case of PDIA3, while this is approximately 3 °C for PDIA1 (Figure 7).
(§3) Protein stability in the absence and presence of punicalagin/punicalin was tested by means of the fluorescence-based thermal stability assay or differential scanning fluorimetry (DSF) developed by Pantoliano and coworkers. DSF records the fluorescence emission signal from the binding of a dye (SYPRO orange) to the exposed hydrophobic patches upon protein unfolding. Fluorescence measurements were performed using a CFX96 Connect RT-PCR instrument (BioRad, Hercules, CA, USA). Aliquots of 18 μL of protein solution (2 μM), freshly diluted in Tris Buffered saline (50 mM TrisHCl, pH 8.0, 150 mM NaCl) containing 0.1 mM DTT, 0.2 mM EDTA, and 1: 1000 dilution of SYPRO Orange (50 mM stock solution in DMSO), were distributed in a 96-well plate. Sample wells were added with punicalagin or punicalin at a final concentration of 5 uM or 20 μM by adding 2 μL of a 10-fold concentrated freshly prepared stock solution. As control, the protein solution was added with 2 μL of the dilution buffer. A melting point analysis was recorded by increasing the temperature from 25 to 70 °C with an increment of 0.2 °C every 5 s and reading, at each temperature, the fluorescence in fluorescence resonance energy transfer mode (FRET). Each measure was the average of three sample well readings, and each DSF experiment was repeated at least three times. To calculate Tm values, DSF data from the melting curve were exported and fitted to a Boltzmann equation using GraphPad software. The effect of punicalagin and punicalin was evaluated comparing the Tm values in the presence and absence of each molecule.

PDIA3 = molecular target: T2, PDIA3 (Homo sapiens, UniProt P30101); experiment: as above; type: binding
T2 construct: The mature recombinant form (devoid of the N-terminal presence) of the human PDIA3 protein was expressed and purified; made in house
T2 sequence (P30101 25-505): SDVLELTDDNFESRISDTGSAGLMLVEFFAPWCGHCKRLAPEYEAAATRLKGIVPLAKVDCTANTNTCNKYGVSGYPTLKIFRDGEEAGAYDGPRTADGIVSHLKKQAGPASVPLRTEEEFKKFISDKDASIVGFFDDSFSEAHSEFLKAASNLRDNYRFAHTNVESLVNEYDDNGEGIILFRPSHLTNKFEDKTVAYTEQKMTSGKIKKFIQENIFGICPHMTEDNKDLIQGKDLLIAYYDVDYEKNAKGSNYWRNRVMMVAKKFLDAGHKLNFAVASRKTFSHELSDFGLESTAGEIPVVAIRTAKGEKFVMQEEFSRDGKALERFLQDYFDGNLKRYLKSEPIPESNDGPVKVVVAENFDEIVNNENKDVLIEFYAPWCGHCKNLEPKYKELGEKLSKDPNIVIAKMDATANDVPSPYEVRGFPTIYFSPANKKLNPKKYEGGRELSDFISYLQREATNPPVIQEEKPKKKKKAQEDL
Experimental: as §1, §2, §3

PDIA1 [2] = molecular target: T1, PDIA1; experiment: Insulin turbidity assay, disulfide reductase activity; type: biochemical; settings: insulin substrate, PDIA1 800 nM, reducing conditions
Experimental: To further evaluate the inhibitory effect of punicalin and punicalagin on the enzymatic activity of the two proteins, we performed a different assay using insulin, a physiologically more appropriate substrate. The results obtained are reported in Figure 4 and show again a lesser inhibitory effect of punicalin compared to punicalagin, as observed with the glutathione-based assay.
PDI disulfide reductase activity was assayed by measuring the reduction of insulin catalyzed by PDIs with DTT. A 50 μM stock solution of each PDI was reduced using TCEP (5 mM final concentration) for 90 min at room temperature. […] After incubation, an equal volume of the 2× reaction mixture (consisting of DTT 50 μM and human insulin 0.32 mM) was added. Protein activity was evaluated by monitoring the increase in turbidity of the solutions at 600 nm.
In both assays, the inhibition constants were extrapolated by GraphPad Prism 8.0 software (GraphPad Software, San Diego, CA, USA), plotting the obtained data as logarithm dose–response curves.

T1 sequence (P07237 18-508): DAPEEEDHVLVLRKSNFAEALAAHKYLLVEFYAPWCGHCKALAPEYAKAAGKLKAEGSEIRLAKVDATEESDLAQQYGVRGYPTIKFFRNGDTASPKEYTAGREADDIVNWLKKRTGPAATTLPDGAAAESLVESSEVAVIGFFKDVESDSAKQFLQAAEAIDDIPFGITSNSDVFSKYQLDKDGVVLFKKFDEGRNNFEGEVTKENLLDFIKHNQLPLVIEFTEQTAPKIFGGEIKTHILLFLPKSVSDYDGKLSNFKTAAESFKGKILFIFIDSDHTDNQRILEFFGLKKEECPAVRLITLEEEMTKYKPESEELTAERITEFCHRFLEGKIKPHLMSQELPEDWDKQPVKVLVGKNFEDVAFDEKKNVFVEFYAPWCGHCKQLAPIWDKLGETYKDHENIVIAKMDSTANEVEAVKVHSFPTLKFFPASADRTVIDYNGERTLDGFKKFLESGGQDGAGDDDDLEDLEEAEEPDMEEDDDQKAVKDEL

- shift towards lower temperature of second main transition (first-derivative graph) (PDIA1 [1]): about 5 °C
- shift of Tm (destabilizing, Boltzmann fit) (PDIA1 [1]; fit range 45–70 °C): approximately 3 °C
- left shift of first transition (first-derivative graph) (PDIA3; PDIA3, compound 20 µM): about 3 °C
- shift towards lower temperature of second transition (first-derivative graph) (PDIA3; PDIA3, compound 20 µM): more than 10 °C
- shift of Tm (destabilizing, Boltzmann fit) (PDIA3; PDIA3, compound 20 µM, fit range 25–55 °C): at least 6 °C
- Tm of PDIA3 after addition of compound (PDIA3; PDIA3 alone Tm 46 °C): below 40 °C
- change in the thermal stability of PDIA3, shift (PDIA3; abstract statement): up to 8 °C
- IC50 (PDIA1 [2]): > 250 µM
Structure (SMILES): O=C1OC[C@H]2OC(O)[C@H](O)[C@@H](O)[C@@H]2OC(=O)c2cc(O)c(O)c(O)c2-c2c(O)c(O)c3oc(=O)c4c(c(O)c(O)c5oc(=O)c2c3c54)-c2c1cc(O)c(O)c2O (mixture of isomers) [Punicalin, punicalin]
